In PMC4887995, “Small molecule dual-inhibitors of TRPV4 and TRPA1 for attenuation of inflammation and pain” (Scientific Reports, 2016):

Columns and labels:
[1] = Compound concentration in organs and plasma by LC-MS/MS; assay type: in vivo, mouse; conditions: 10 mg/kg i.p.
Method: Mice were treated with 10 mg/kg i.p. of the respective inhibitor. Post-euthanasia harvested tissue was frozen in liquid nitrogen and stored at −80 °C for further analysis.
Frozen tissue samples were partially thawed and cut into 1 mm slices, 5–15 mg tissue, 2-fold excess water (mass/vol.), 6-fold excess acetonitrile (16-… compounds) or methanol (GSK205) containing appropriate amount of internal standard, and 2.5 mm zirconia/silica bead (Biospec Products Inc.) were added to 500- μL polypropylene (PP) conical tube, homogenized in a Fast-Prep apparatus (Thermo-Savant) at speed “4” for 20 sec at room temp, and centrifuged at 13,600 g for 5 min at room temp. Depending on the expected concentration range of the measured compound, the supernatant was diluted 1/4–1/20 (in Mobile phase A, see below) and placed in autosampler for LC-MS/MS analysis.
The LC-MS/MS assay for 16-… compounds and GSK205 was developed on an Agilent 1200 series LC system interfaced with Applied Biosystems API 5500QTrap, a hybrid triple quadruple-linear trap MS/MS spectrometer. Analyst (version 1.6.1) software was used for mass parameters tuning, data acquisition, and quantification. LC column: 3 × 4 mm RP C18 (Phenomenex, AJ0-4287) was operated at 35 °C. Mobile phase A: 0.1% formic acid, 2% acetonitrile, in LC/MS-grade water; mobile phase B: acetonitrile; flow rate: 1 mL/min, 1:1 MS/MS:waste split. Run time was 4 min. Diverter valve was used to send flow to MS/MS only between 1.2 and 2.5 min. The elution gradient was: 0–0.5 min, 1%B; 0.5–1.2 min, 1–95%B; 1.2–1.5 min, 95%B; 1.5–1.6 min, 95–1%B. Autosampler was operated at 4 °C; injection volume was kept at 10–50 μL. Electrospray ionization (ESI) source parameters were: positive ionization mode, curtain gas flow = 30, ionization potential = 5500 V, temperature = 500 °C, nebulizing gas 1 flow = 30, nebulizing gas 2 = 30, declustering potential = 20 V. 16-… compounds and GSK205 were individually infused as 100 nM solutions in 50%A/50%B at 10 μL/min flow rate and parameters optimized to provide maximal ion count for “parent” and collision-produced (“daughter”) MS/MS ions. Parent/daughter quantifier [qualifier] ions utilized: GSK205 (401.1/280[370]), 16-8 (400.1/279.1[91.1], 16-16 (387.1/280[105]), 16-18 (415.2/280[370], 16-19 (414.1/279.2[91.1]. Standard (analyte of interest)/internal standard pairs utilized: GSK205/16-16, 16-8/16-16, 16-18/GSK205, 16-19/16-8.
Calibration samples (n = 6) were prepared by adding pure standard of the measured compound to tissue homogenate (tissue + 2-fold excess water, mass/vol) in the appropriate range needed for the particular dosing regime. Organs studied were analyzed alongside the study samples. […] Peak integration, calibration, and quantification was performed within Analyst software. […]

[2] = biological target: T1, TRPV2 (Mus musculus, UniProt Q9WTR1); assay: Ca++ imaging in N2a cells over-expressing TRPV2 (hypotonicity); conditions: 5 μM
T1 sequence (Q9WTR1 1-756): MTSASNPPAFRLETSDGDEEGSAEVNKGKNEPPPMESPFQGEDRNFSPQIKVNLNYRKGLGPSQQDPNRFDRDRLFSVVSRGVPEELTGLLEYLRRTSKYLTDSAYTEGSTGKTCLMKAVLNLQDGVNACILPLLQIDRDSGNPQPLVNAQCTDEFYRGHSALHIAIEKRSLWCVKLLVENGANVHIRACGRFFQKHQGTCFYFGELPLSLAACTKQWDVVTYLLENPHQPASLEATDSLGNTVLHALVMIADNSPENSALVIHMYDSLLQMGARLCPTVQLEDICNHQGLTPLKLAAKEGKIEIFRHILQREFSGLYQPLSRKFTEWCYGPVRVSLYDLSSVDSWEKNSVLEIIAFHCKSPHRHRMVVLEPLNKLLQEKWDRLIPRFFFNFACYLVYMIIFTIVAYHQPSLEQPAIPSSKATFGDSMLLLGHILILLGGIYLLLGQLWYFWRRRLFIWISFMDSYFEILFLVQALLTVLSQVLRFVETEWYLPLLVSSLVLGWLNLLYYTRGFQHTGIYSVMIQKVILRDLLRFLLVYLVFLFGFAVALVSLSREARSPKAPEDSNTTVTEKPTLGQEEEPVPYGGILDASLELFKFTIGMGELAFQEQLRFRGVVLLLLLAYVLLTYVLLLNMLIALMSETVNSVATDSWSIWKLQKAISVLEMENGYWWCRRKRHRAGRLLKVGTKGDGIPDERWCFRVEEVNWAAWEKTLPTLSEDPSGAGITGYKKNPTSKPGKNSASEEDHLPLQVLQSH
Method: (A) Specificity vs TRPV1-3. […] Mean±SEM is shown, ≥100 cells per condition. […] Plot generated from averaged peak ∆Ca^++ concentration of ≥75 cells per data-point.
N2a cells were used for directed expression of TRP ion channels as described previously[13]. […] All other channels were native channels from mouse, eGFP was co-transfected. […] Ca^++ imaging was performed as described previously[13][14][34].

[3] = biological target: TRPV4 (Rattus norvegicus, UniProt Q9ERZ8); conditions: for inhibition of TRPV4-mediated Ca++ influx / average peak ∆Ca++ concentration: 5 μM inhibitor, GSK101 5 nM; for average peak ∆Ca++ concentration: ≈100 cells, vehicle control 1156; for increased potency over GSK205: from TRPV4 IC50 values
Chain of TRPV4 (Q9ERZ8 whole entry): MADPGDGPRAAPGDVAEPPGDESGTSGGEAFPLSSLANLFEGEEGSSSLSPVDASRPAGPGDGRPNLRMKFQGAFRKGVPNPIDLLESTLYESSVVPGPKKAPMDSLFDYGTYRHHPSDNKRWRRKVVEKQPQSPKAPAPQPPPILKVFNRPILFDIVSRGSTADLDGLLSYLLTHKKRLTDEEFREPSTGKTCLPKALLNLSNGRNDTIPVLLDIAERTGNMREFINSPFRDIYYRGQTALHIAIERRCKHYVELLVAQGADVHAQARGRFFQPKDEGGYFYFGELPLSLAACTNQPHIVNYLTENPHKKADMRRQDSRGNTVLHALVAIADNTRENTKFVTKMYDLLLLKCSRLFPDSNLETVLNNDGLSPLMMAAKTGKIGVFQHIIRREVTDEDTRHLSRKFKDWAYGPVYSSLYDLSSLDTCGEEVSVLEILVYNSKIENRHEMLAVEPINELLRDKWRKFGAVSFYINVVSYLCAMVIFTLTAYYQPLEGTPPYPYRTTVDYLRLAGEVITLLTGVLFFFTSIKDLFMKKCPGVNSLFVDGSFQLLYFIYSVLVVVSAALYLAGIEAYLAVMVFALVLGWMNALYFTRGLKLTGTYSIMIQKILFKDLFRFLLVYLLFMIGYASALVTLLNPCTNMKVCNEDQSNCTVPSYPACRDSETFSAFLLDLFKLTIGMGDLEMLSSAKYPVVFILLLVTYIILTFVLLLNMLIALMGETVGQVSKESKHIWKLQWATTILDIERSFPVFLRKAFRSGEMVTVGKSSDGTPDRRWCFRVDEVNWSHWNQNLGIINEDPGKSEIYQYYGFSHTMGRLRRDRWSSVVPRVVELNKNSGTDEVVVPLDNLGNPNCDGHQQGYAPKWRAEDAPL
Method: We assessed TRPV4-inhibitory potency of these synthetic compounds in a Ca^++ imaging assay in neuronal 2a (N2a) permanent tissue culture cells with directed expression of mammalian (rat) TRPV4. […] For first round assessment, all TRPV4-inhibitory compounds were used at 5 μM (Fig. 2A).
(A) Ca^++ imaging screening of all compounds in N2A cells with directed expression of TRPV4 (rat). […] The number on each bar corresponds to average peak ∆Ca^++ concentrations in ≈100 cells. Inset: micrographs of pseudo-colored cells before and after activation with 5nM GSK101, in addition note the corresponding time course of the averaged Ca^++ signal (fura-2 Ca^++ imaging). […] Plot generated from averaged peak ∆Ca^++ concentration of ≥75 cells per data-point.
TRPV4-eGFP from rat was used, previously found to respond to stimulation with GSK101 and hypotonicity in similar manner as native, non-fused TRPV4.

Structure (SMILES) | concentration in fat and pancreas ([1]; after one hour) | inhibition of TRPV2 [2] | IC50 [3] | inhibition of TRPV4-mediated Ca++ influx [3] | average peak ∆Ca++ concentration [3] | increased potency over GSK205 [3] | concentration in non-nervous tissue, especially liver and kidney, comparison of compounds ([1]; 1 h) | concentration at 6 h time-point compared to 1 h time-point ([1]; several organs) | concentration at 24 h time-point ([1]; several organs)
CN(CCc1ccc(Nc2nc(-c3ccccc3)cs2)cc1)Cc1ccccc1 [16-8] | above its IC50 | did not inhibit | 450 ± 50 nM | virtually eliminated Ca^++ influx | 6 nM | approximately 10 fold | – | – | –
CCN(CCc1ccc(Nc2nc(-c3ccccc3)cs2)cc1)Cc1ccccc1 [16-19] | – | did not inhibit | – | virtually eliminated Ca^++ influx | 8 nM | ~8 fold | higher concentrations | 10-20 fold | lower than at the 6 h but higher than at the 1 h time-point
